In publication PMC6791383, “A side-by-side evaluation of [^18F]FDOPA enantiomers for non-invasive detection of neuroendocrine tumors by positron emission tomography” (Oncotarget, 2019):

Columns and labels:
TGP52 cells = assay: In vitro uptake (binding) assay in TGP52 cells; type: cell-based; conditions: 30mins incubation, 1 million cells, % incubated dose/million cells
Description: (§1) Both [^18F]FDOPA enantiomers were initially assessed in vitro in all NET cells.
(§2) In vitro binding assays were carried out, in triplicate, in PBS with 0.5% FBS, for 30mins at ambient temperatures using 1 million cells and repeated three times. Blocking studies were carried out using 10meq of the commercial LAT1 inhibitor, 2-Aminobicyclo[2.2.1]heptane-2-carboxylic acid (TOCRIS, MN, USA). Following incubation with each tracer, cells were rinsed three times with cold PBS prior to being counted on an automated gamma counter (1282 Compugamma CS; Pharmacia/LKBNuclear, Inc.) along with external standards. Obtained counts were converted into percentage incubated dose per million cells based on normalization to external standards. Experiments were performed in triplicate and repeated three times.

STC-1 xenografts [1] = assay: In vivo PET-CT quantitative image analysis, STC-1 xenografts; conditions: STC-1 tumors, NSG mice, 9MBq
Description: (§3) All animal studies were carried out according to regulations set forth and approved by the Johns Hopkins Animal Care and Use Committee. Female, 6- to 8-weeks-old immunodeficient NOD scid gamma (NSG) mice were subcutaneously inoculated with 1 million PC12, STC-1 or COLO-320 cells in […] of Hank’s balanced salt solution in the top flank. Tumors of 4–6 mm in diameter (typically 14-21 days post inoculation) were utilized for in vivo imaging or ex vivo biodistribution studies.
(§4) Mice (n=4) were injected with 9MBq (250μCi) of each tracer in 150μL of saline intravenously and anesthetized with 3% isoflurane prior to being placed on the scanner bed. Mice were kept warm with an external light source and maintained at 1% isoflurane levels while being scanned. PET imaging (2 beds; 10 min per bed) was carried out using an ARGUS small-animal PET/CT scanner (Sedecal). A CT scan (512 projections) was obtained at the end of each PET scan for anatomical co-registration. For in vivo blocking experiments, mice were injected with 10meq of LAT1 inhibitor. PET data were reconstructed using the 2-dimensional ordered subsets-expectation maximization algorithm (2D-OSEM) and corrected for dead time and radioactive decay. Data visualization and image generation were carried out using Amira 2019.1 (ThermoFisher Scientific).
(§5) Quantitative in vivo image analysis was carried out in AMIDE (SourceForge) 1.0.4 utilizing ellipsoid region-of-interest volume integrations with 3 slices entailing a depth of 1.9 mm per slice. The %ID per cc values were calculated based on a calibration factor obtained from a phantom (known radioactive quantity in a known volume).

LAT1 = assay: In vivo PET-CT blocking by BCH in NET mouse models; parameters: species or system mice; conditions: all NET mouse models (PC12, STC-1, COLO-320), 10meq LAT1 inhibitor
Description: as §4, §5

TGP61 cells = assay: In vitro uptake (binding) assay in TGP61 cells; type: cell-based; conditions: 30mins incubation, 1 million cells, % incubated dose/million cells
Description: as §1, §2

STC-1 cells = assay: In vitro uptake (binding) assay in STC-1 cells; type: cell-based; conditions: 30mins incubation, 1 million cells, % incubated dose/million cells
Description: as §1, §2

PC12 xenografts = assay: In vivo PET-CT quantitative image analysis, PC12 xenografts; conditions: PC12 tumors, NSG mice, 9MBq
Description: as §3, §4, §5

STC-1 xenografts [2] = assay: Ex vivo biodistribution in NSG mice bearing STC-1 xenografts; conditions: for Biodistribution, Bladder / Biodistribution, Blood / Biodistribution, Bone / Biodistribution, Brain / Biodistribution, Fat / Biodistribution, Heart / Biodistribution, Kidneys / Biodistribution, Liver / Biodistribution, Lungs / Biodistribution, Muscle / Biodistribution, Pancreas / Biodistribution, Small Intestines / Biodistribution, Spleen / Biodistribution, Stomach / Biodistribution, Tumor: STC-1 xenograft NSG mice, 1.5MBq i.v.
Description: as §3
Mice (n=5 per group) were intravenously injected with 1.5MBq (40μCi) of each tracer in 150μL of saline. Ex vivo biodistribution studies were performed at 30min and 120min time points after tracer administration. Blood, liver, spleen, heart, lungs, kidneys, small intestines, stomach, muscle, fat, bone, bladder, brain and tumor tissues were retrieved, weighed, and counted in an automated gamma counter (1282 Compugamma CS). Percentage injected dose per gram (%ID/g) values were calculated based on normalization to external standards, counted in triplicate, and accounted for signal-decay correction.

Compound: N[C@H](Cc1cc(O)c(O)cc1[18F])C(=O)O [D-[^18F]FDOPA, 3,4-dihydroxy-6-[^18F]fluoro-D-phenylalanine]
- in vitro uptake (TGP52 cells): 3.18±0.19%
- tumor uptake, quantitative PET image analysis (STC-1 xenografts [1]; 30min post i.v. injection): 12.01±1.61 %ID/cc
- tumor uptake, quantitative PET image analysis (STC-1 xenografts [1]; 120min post i.v. injection): 3.34±0.32 %ID/cc
- tumor uptake after in vivo blocking by BCH (LAT1): significantly reduced
- in vitro uptake (TGP61 cells): 3.11±0.41%
- in vitro uptake (STC-1 cells): 2.41±0.17%
- tumor uptake, quantitative PET image analysis (PC12 xenografts; 30min post i.v. injection): 8.87±0.31 %ID/cc
- tumor uptake, quantitative PET image analysis (PC12 xenografts; 120min post i.v. injection): 3.96±0.34 %ID/cc
- pancreatic retention, fold lower compared to L-[^18F]FDOPA (STC-1 xenografts [2]; STC-1 mice, 120min p.i.): approximately 2 fold
- Biodistribution, Bladder (STC-1 xenografts [2]; 30min p.i.): 20.49 %ID/g
- Biodistribution, Blood (STC-1 xenografts [2]; 30min p.i.): 4.31 %ID/g
- Biodistribution, Bone (STC-1 xenografts [2]; 30min p.i.): 3.94 %ID/g
- Biodistribution, Brain (STC-1 xenografts [2]; 30min p.i.): 0.55 %ID/g
- Biodistribution, Fat (STC-1 xenografts [2]; 30min p.i.): 2.27 %ID/g
- Biodistribution, Heart (STC-1 xenografts [2]; 30min p.i.): 2.52 %ID/g
- Biodistribution, Kidneys (STC-1 xenografts [2]; 30min p.i.): 12.32 %ID/g
- Biodistribution, Liver (STC-1 xenografts [2]; 30min p.i.): 3.85 %ID/g
- Biodistribution, Lungs (STC-1 xenografts [2]; 30min p.i.): 6.63 %ID/g
- Biodistribution, Muscle (STC-1 xenografts [2]; 30min p.i.): 1.62 %ID/g
- Biodistribution, Pancreas (STC-1 xenografts [2]; 30min p.i.): 61.64 %ID/g
- Biodistribution, Small Intestines (STC-1 xenografts [2]; 30min p.i.): 10.28 %ID/g
- Biodistribution, Spleen (STC-1 xenografts [2]; 30min p.i.): 17.41 %ID/g
- Biodistribution, Stomach (STC-1 xenografts [2]; 30min p.i.): 9.37 %ID/g
- Biodistribution, Tumor (STC-1 xenografts [2]; 30min p.i.): 6.92 %ID/g
- Biodistribution, Bladder (STC-1 xenografts [2]; 120min p.i.): 7.51 %ID/g
- Biodistribution, Blood (STC-1 xenografts [2]; 120min p.i.): 1.49 %ID/g
- Biodistribution, Bone (STC-1 xenografts [2]; 120min p.i.): 5.28 %ID/g
- Biodistribution, Brain (STC-1 xenografts [2]; 120min p.i.): 1.30 %ID/g
- Biodistribution, Fat (STC-1 xenografts [2]; 120min p.i.): 1.14 %ID/g
- Biodistribution, Heart (STC-1 xenografts [2]; 120min p.i.): 1.58 %ID/g
- Biodistribution, Kidneys (STC-1 xenografts [2]; 120min p.i.): 2.30 %ID/g
- Biodistribution, Liver (STC-1 xenografts [2]; 120min p.i.): 1.60 %ID/g
- Biodistribution, Lungs (STC-1 xenografts [2]; 120min p.i.): 2.34 %ID/g
- Biodistribution, Muscle (STC-1 xenografts [2]; 120min p.i.): 2.66 %ID/g
- Biodistribution, Pancreas (STC-1 xenografts [2]; 120min p.i.): 9.75 %ID/g
- Biodistribution, Small Intestines (STC-1 xenografts [2]; 120min p.i.): 3.80 %ID/g
- Biodistribution, Spleen (STC-1 xenografts [2]; 120min p.i.): 0.61 %ID/g
- Biodistribution, Stomach (STC-1 xenografts [2]; 120min p.i.): 4.84 %ID/g
- Biodistribution, Tumor (STC-1 xenografts [2]; 120min p.i.): 3.15 %ID/g
